Test results reported in EP1120414A1, “DISUBSTITUTED MALEIMIDE COMPOUNDS AND MEDICINAL UTILIZATION THEREOF” (Japan Tobacco Inc., priority 1998, dated 2000).
Like-named read-outs stand apart in the source and are kept apart here.

How the values were obtained:
PKC α = target: T1, PKC α (Homo sapiens, UniProt P17252); test: PKC enzyme assay (BIOTRAK Protein kinase C enzyme assay system, 32P-ATP phosphorylation of peptide […]); format: biochemical
T1 construct: purchased CALBIOCHEM
Procedure: (§1) As the reagent for enzyme assay, BIOTRAK Protein kinase C enzyme assay system (hereinafter the system, Amersham), and as the PKC enzyme standard product, Protein Kinase C, Human Recombinant (CALBIOCHEM) were purchased and used in the assay. A substrate mixture was prepared by mixing calcium buffer (12 mM calcium acetate, 50 mM Tris/HCl pH 7.5, 0.05% (w/v) sodium azide), Lipid (0.3 mg/ml La-phosphatidyl-L-serine, […] phorbol 12-myristate 13-acetate, 50 mM Tris/HCl pH 7.5, 0.05% (w/v) sodium azide), peptide buffer (900 µM peptide […]), 50 mM Tris/HCl pH 7.5, 0.05% (w/v) sodium azide), DTT buffer (30 mM dithiothreitol, 50 mM Tris/HCl pH 7.5, 0.05% (w/v) sodium azide), and magnesium ATP buffer (1.2 mM ATP, […] pH 7.4, 72 mM magnesium chloride) all attached to the system in a ratio of 1:1:1:1:0.8 and adding [ y -32P]ATP (Amersham, cat. […] The PKC enzyme standard product was diluted with an assay buffer (10 mM Hepes pH 7.4, 0.01% Triton X-100) to a concentration of 400 ng/ml and used as the enzyme solution. The substrate mixture and a test substance (diluted to the final concentration of 1 nM-10 µM with dimethyl sulfoxide (DMSO)) were mixed at a ratio of 20:1. The enzyme solution was added in the amount equivalent to the substrate mixture and mixed, which was followed by incubation at 37°C for 15 minutes. The reaction terminator (300 mM orthophosphoric acid containing carmosine red) attached to the system was added in the amount equivalent to the substrate mixture to end the reaction, and the reaction mixture was spotted on a phosphocellulose paper (Whatman, P-81), washed twice with 75 mM orthophosphoric acid and assayed for radioactivity by BAS2000 (Fuji film).
(§2) The ratio of the radioactivity of the addition of the test substance to the addition of DMSO was determined, and IC50 was calculated from inhibition at each concentration.

PKC β II = target: T2, PKC β II (Homo sapiens, UniProt P05771); test: as above; format: biochemical; settings: for Ratio α/β: IC50 PKC α / IC50 PKC β II
T2 construct: purchased CALBIOCHEM
Description: The method for determining the PKC inhibitory activity of the compound of the present invention is explained in the following. Inasmuch as PKCβII is present in greater number in intravascular cells than PKCβI, PKCβII was mainly used here to test the enzyme activity.
as §1, §2

[1] = read-out: Inhibition of PKC activity IC50 PKC α, Protein Kinase C, Human Recombinant, test substance 1 nM-10 µM, 37°C, 15 minutes
[2] = read-out: Inhibition of PKC activity IC50 PKC β II, Protein Kinase C, Human Recombinant, test substance 1 nM-10 µM, 37°C, 15 minutes
[3] = Protein Kinase C, Human Recombinant, test substance 1 nM-10 µM, 37°C, 15 minutes, read-out: Inhibition of PKC activity IC50 PKC α
[4] = Protein Kinase C, Human Recombinant, test substance 1 nM-10 µM, 37°C, 15 minutes, read-out: Inhibition of PKC activity IC50 PKC β II

T2 sequence (P05771 other isoform, or with tags, fused parts or gaps): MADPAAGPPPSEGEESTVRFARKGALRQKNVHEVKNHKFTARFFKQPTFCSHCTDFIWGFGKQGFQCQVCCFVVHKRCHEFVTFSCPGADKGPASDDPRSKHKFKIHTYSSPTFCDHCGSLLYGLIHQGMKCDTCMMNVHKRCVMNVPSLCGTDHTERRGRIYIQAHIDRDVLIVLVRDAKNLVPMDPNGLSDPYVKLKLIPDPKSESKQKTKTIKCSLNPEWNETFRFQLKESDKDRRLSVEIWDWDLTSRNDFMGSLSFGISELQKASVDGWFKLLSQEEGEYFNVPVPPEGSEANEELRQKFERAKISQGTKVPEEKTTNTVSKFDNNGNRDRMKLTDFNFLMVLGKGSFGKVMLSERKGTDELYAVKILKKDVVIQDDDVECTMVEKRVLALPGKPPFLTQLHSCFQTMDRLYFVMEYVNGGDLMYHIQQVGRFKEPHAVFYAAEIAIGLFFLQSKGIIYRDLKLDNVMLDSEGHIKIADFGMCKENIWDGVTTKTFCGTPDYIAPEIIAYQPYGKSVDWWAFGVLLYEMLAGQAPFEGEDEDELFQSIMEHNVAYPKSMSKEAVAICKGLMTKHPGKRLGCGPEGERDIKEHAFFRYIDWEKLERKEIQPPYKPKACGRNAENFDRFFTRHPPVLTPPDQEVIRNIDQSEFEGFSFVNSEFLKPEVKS

Compound | IC50 (PKC α) [µM] | IC50 (PKC β II) [µM] | Ratio α/β (PKC β II) | IC50 (PKC α; [1]) [µM] | IC50 (PKC β II; [2]) [µM] | IC50 (PKC α; [3]) [µM] | IC50 (PKC β II; [4]) [µM]
CN1CCN(CCCCn2cc(C3=C(Nc4ccccc4)C(=O)NC3=O)c3ccccc32)CC1 [Example 2-29, 3-[1-{4-(4-methylpiperazin-1-yl)butyl}-1H-indol-3-yl]-4-(phenylamino)-1H-pyrrole-2,5-dione] |  |  | 75 |  |  | 1.87 | 0.025
CN(C)C[C@H]1Cc2c(C3=C(Nc4ccccc4)C(=O)NC3=O)c3ccccc3n2C1 [Example 4-64] |  |  | 37 | 0.148 |  |  | 0.004
Cc1c(C2=C(Nc3ccccc3)C(=O)NC2=O)c2ccccc2n1CCCN1CCCCC1 [Example 2-53, 3-[2-methyl-1-(3-piperidinopropyl)-1H-indol-3-yl]-4-(phenylamino)-1H-pyrrole-2,5-dione] |  |  | 102 |  |  | > 10 | 0.098
O=C1NC(=O)C(c2cn(CCCCCN3CCC(O)CC3)c3ccccc23)=C1Nc1ccccc1 [Example 2-28, 3-[1-{5-(4-hydroxypiperidino)pentyl}-1H-indol-3-yl]-4-(phenylamino)-1H-pyrrole-2,5-dione] |  |  | 43 |  |  | 1.08 | 0.025
CN(C)CCCCn1cc(C2=C(Nc3ccccc3)C(=O)NC2=O)c2ccccc21 [Example 2-10, 3-[1-(4-dimethylaminobutyl)-1H-indol-3-yl]-4-(phenylamino)-1H-pyrrole-2,5-dione] |  |  | 49 |  |  | 0.73 | 0.015
O=C1NC(=O)C(c2cn(CCCCCn3ccnc3)c3ccccc23)=C1Nc1ccccc1 [Example 2-41, 3-[1-(5-imidazol-1-ylpentyl)-1H-indol-3-yl]-4-(phenylamino)-1H-pyrrole-2,5-dione] |  |  | 44 |  |  | 2.74 | 0.062
3-[(3-chlorophenyl)amino]-4-[1-{3-(4-hydroxymethyl-imidazol-1-yl)propyl}-1H-indol-3-yl]-1H-pyrrole-2,5-dione and 3-[(3-chlorophenyl)amino]-4-[1-{3-(5-hydroxymethyl-imidazol-1-yl)propyl}-1H-indol-3-yl]-1H-pyrrole-2,5-dione [Example 2-60] |  |  | 48 |  |  | 0.762 | 0.016
O=C1NC(=O)C(c2cn(CCCN3CCC(Cc4ccccc4)CC3)c3ccccc23)=C1Nc1ccccc1 [Example 2-48, 3-[1-{3-(4-benzylpiperidino)propyl}-1H-indol-3-yl]-4-(phenylamino)-1H-pyrrole-2,5-dione] |  |  | 77 |  |  | 1.39 | 0.018
Cc1nccn1CCCn1cc(C2=C(Nc3ccccc3)C(=O)NC2=O)c2ccccc21 [Example 2-61, 3-[1-{3-(2-methylimidazol-1-yl)propyl}-1H-indol-3-yl]-4-(phenylamino)-1H-pyrrole-2,5-dione] |  |  | 45 |  |  | 0.401 | 0.009
O=C1NC(=O)C(c2c[nH]c3ccccc23)=C1Nc1cccc(Cl)c1 [Example 1-6, 3-[(3-chlorophenyl)amino]-4-(1H-indol-3-yl)-1H-pyrrole-2,5-dione] |  |  | 35 |  |  | 6.91 | 0.198
O=C1NC(=O)C(c2c[nH]c3ccccc23)=C1Nc1cccc(F)c1 [Example 1-12, 3-[(3-fluorophenyl)amino]-4-(1H-indol-3-yl)-1H-pyrrole-2,5-dione] |  |  | 29 |  |  | 7.16 | 0.249
O=C1NC(=O)C(c2cn(CCCN3CCC(O)CC3)c3ccccc23)=C1Nc1ccccc1 [Example 2-25, 3-[1-{3-(4-hydroxypiperidino)propyl}-1H-indol-3-yl]-4-(phenylamino)-1H-pyrrole-2,5-dione] |  |  | 46 |  |  | 0.413 | 0.009
O=C1NC(=O)C(c2c[nH]c3ccccc23)=C1Nc1cccc(Br)c1 [Example 1-10, 3-[(3-bromophenyl)amino]-4-(1H-indol-3-yl)-1H-pyrrole-2,5-dione] |  |  | 37 |  |  | 8.34 | 0.226
O=C1NC(=O)C(c2cn(CCCn3ccnc3)c3ccccc23)=C1Nc1ccc(Br)cc1 [Example 2-66, 3-[(4-bromophenyl)amino]-4-[1-(3-imidazol-1-ylpropyl)-1H-indol-3-yl]-1H-pyrrole-2,5-dione] |  |  | 34 |  |  | 0.908 | 0.027
O=C1NC(=O)C(c2cn(CCCO)c3ccccc23)=C1Nc1cccc(Cl)c1 [Example 2-3, 3-[(3-chlorophenyl)amino]-4-[1-(3-hydroxypropyl)-1H-indol-3-yl]-1H-pyrrole-2,5-dione] |  |  | 85 |  |  | 3.9 | 0.046
CN(C)CCN(C)CCCn1cc(C2=C(Nc3ccccc3)C(=O)NC2=O)c2ccccc21 [Example 2-14, 3-[1-{3-[N-(2-dimethylaminoethyl)-N-methylamino)propyl}-1H-indol-3-yl]-4-(phenylamino)-1H-pyrrole-2,5-dione] |  |  | 70 |  |  | 2.79 | 0.04
O=C1NC(=O)C(c2cn(CCCS(=O)(=O)c3ccccc3)c3ccccc23)=C1Nc1ccccc1 [Example 2-35, 3-[1-{3-(phenylsulfonyl)propyl}-1H-indol-3-yl]-4-(phenylamino)-1H-pyrrole-2,5-dione] |  |  | 41 |  |  | 3.89 | 0.095
Cc1cccc(NC2=C(c3c[nH]c4ccccc34)C(=O)NC2=O)c1 [Example 1-5, 3-(1H-indol-3-yl)-4-[(3-methylphenyl)amino]-1H-pyrrole-2,5-dione] |  |  | 33 |  |  | 4.92 | 0.151
O=C1NC(=O)C(c2cn(CCCn3cncn3)c3ccccc23)=C1Nc1ccccc1 [Example 2-38, 3-(phenylamino)-4-[1-{3-(1,2,4-triazol-1-yl)propyl}-1H-indol-3-yl]-1H-pyrrole-2,5-dione] |  |  | 25 |  |  | > 1 | 0.04
O=C1NC(=O)C(c2cn(CCCN3CCN(CCO)CC3)c3ccccc23)=C1Nc1ccccc1 [Example 2-32, 3-[1-{3-[4-(2-hydroxyethyl)piperazin-1-yl]propyl}-1H-indol-3-yl]-4-(phenylamino)-1H-pyrrole-2,5-dione] |  |  | 57 |  |  | 1.07 | 0.019
O=C1NC(=O)C(c2cn(CCCO)c3ccccc23)=C1Nc1ccccc1 [Example 2-1, 3-[1-(3-hydroxypropyl)-1H-indol-3-yl]-4-(phenylamino)-1H-pyrrole-2,5-dione] |  |  | 54 |  |  | 1.62 | 0.03

Next, values leading:

IC50 (PKC α) [µM] | IC50 (PKC β II) [µM] | Ratio α/β (PKC β II) | IC50 (PKC α; [1]) [µM] | IC50 (PKC β II; [2]) [µM] | IC50 (PKC α; [3]) [µM] | IC50 (PKC β II; [4]) [µM] | Compound
0.708 | 0.007 | 101 |  |  |  |  | CCN(C)CC1CCc2c(C3=C(Nc4ccccc4)C(=O)NC3=O)c3ccccc3n2C1 (stereo not drawn) [Example 4-51]
 |  | 64 | 0.186 | 0.003 |  |  | CCNCC1Cc2c(C3=C(Nc4ccccc4)C(=O)NC3=O)c3ccccc3n2C1 (stereo not drawn) [Example 4-31]
 |  | 131 | 0.654 | 0.005 |  |  | O=C1NC(=O)C(c2c3n(c4ccccc24)CC[C@H](CN2CCSCC2)C3)=C1Nc1ccccc1 [Example 4-30]
 |  | 159 | 0.159 | 0.001 |  |  | CNC[C@H]1Cc2c(C3=C(Nc4ccccc4)C(=O)NC3=O)c3ccccc3n2C1 [Example 4-70]
 |  | 68 | 0.204 | 0.003 |  |  | CCN(C)C[C@H]1CCn2c(c(C3=C(Nc4ccccc4)C(=O)NC3=O)c3ccccc32)C1 [Example 4-24]
 |  | 121 | 2.66 | 0.022 |  |  | O=C1NC(=O)C(c2c3n(c4ccccc24)C[C@H](CN2CCOCC2)CC3)=C1Nc1ccccc1 [Example 4-42]
 |  | 47 |  |  | 2.65 | 0.057 | CN1CCCC(Cn2cc(C3=C(Nc4ccccc4)C(=O)NC3=O)c3ccccc32)C1 (stereo not drawn) [Example 3-3, 3-[1-{(1-methylpiperidin-3-yl)methyl}-1H-indol-3-yl]-4-(phenylamino)-1H-pyrrole-2,5-dione]
 |  | 85 | 0.341 | 0.004 |  |  | O=C1NC(=O)C(c2c3n(c4ccccc24)C[C@@H](CO)C3)=C1Nc1ccc(F)cc1 [Example 4-68]
 |  | 107 | 0.749 | 0.007 |  |  | O=C1NC(=O)C(c2c3n(c4ccccc24)C[C@H](CO)C=C3)=C1Nc1ccccc1 [Example 4-43]
